The numbers were not newly measured in patent publication US20070149456A1, “Epithelial sodium channel inhibiting agents and uses therefor” (University of Pittsburgh, priority 2005, published 2007), which cites them from elsewhere.

Broadly, the IC50 is the concentration at which inhibition is half-maximal.

For this series, the target named is T1, endogenous ENaC in mpkCCDc14 cells (Mus musculus, UniProt Q61180+Q9WU38+Q9WU39).
T1 construct: endogenous ENaC in a mouse cortical collecting duct (mpkCCDc14) cell line; endogenous in cells; host or cells: mpkCCDc14 mouse cortical collecting duct cell line
The conditions noted are these: mouse CCD cells; stated jointly with human airway; Carattino 2006; read-out: IC50, inhibition of ENaC activity; cited from earlier work.

T1 sequence (Q61180 1-205): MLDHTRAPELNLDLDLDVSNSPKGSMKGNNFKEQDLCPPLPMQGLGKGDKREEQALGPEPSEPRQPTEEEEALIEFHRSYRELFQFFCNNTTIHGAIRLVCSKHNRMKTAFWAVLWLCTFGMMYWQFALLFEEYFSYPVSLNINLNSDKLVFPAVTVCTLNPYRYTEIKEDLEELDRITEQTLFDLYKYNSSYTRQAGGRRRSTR
T1 sequence (Q61180 232-699): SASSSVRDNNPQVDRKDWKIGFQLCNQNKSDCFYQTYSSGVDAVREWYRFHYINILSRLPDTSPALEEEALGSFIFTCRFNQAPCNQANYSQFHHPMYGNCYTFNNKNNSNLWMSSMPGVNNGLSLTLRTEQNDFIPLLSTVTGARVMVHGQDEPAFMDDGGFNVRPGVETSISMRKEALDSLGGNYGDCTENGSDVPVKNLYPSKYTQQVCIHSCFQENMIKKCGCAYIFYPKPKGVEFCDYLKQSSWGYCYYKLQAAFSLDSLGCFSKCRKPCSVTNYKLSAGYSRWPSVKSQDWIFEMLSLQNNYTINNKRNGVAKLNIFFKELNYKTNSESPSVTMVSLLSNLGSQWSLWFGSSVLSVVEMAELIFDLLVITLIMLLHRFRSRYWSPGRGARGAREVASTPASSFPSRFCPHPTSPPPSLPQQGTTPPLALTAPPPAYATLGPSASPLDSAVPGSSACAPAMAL
T1 sequence (Q9WU38 whole entry): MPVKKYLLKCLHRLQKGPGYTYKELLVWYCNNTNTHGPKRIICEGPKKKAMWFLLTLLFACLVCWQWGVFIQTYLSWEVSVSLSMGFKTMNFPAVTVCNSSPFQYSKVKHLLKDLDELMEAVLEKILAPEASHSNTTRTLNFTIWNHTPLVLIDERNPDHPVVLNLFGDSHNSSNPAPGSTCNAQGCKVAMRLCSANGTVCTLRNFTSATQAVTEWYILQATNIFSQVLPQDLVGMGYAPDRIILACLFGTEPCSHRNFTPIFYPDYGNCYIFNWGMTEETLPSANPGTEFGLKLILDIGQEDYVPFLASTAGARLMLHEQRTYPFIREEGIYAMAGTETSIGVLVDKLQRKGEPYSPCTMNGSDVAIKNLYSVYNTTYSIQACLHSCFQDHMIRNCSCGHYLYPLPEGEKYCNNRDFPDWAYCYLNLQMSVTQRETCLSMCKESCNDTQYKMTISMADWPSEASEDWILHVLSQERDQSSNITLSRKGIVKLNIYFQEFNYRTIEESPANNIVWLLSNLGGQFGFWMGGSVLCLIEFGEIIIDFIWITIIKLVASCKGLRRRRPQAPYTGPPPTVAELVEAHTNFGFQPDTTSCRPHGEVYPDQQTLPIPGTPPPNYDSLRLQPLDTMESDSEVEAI
T1 sequence (Q9WU39 1-143): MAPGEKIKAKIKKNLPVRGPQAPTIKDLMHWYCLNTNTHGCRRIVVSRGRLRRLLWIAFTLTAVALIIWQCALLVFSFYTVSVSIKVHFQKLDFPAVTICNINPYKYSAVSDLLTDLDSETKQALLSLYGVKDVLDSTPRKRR
T1 sequence (Q9WU39 187-655): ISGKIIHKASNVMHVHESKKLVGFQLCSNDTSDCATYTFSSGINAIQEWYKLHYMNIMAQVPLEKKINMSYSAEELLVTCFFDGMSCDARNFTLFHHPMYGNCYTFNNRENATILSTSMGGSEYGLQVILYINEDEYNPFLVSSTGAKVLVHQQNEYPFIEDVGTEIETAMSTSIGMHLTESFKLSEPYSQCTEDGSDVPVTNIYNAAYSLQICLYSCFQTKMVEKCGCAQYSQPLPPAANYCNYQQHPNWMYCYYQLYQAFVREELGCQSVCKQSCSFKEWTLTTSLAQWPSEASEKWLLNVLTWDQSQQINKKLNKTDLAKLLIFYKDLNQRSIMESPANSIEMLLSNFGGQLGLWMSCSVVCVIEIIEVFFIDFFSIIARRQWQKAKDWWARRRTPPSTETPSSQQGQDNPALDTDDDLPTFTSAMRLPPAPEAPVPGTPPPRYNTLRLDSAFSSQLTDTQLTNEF

For the substance “Ac-DLRGALPHPLQRLRTPPPPNPARSAR-NH2 [α-26]”, the IC50 was 50 to 100 µM.
